Measurements as given in patent US9067894B1, “Compound, composition, and method of activating GIRK potassium channel and use of same for treating conditions of interest” (Vanderbilt University, priority 2013, dated 2015).
Entries after “also recorded” stand apart in the source; their conditions may differ.

Experiments:
GIRK1/3 = target: T1, GIRK1/3 (Homo sapiens, UniProt P48549+Q92806); test: Thallium flux assay, HEK-293 cells expressing GIRK1/3; type: cell-based; conditions: cell line GIRK1-3; average ± SEM
T1 construct: expressed in transfected cells; host or cells: HEK-293
T1 sequence (P48549 whole entry): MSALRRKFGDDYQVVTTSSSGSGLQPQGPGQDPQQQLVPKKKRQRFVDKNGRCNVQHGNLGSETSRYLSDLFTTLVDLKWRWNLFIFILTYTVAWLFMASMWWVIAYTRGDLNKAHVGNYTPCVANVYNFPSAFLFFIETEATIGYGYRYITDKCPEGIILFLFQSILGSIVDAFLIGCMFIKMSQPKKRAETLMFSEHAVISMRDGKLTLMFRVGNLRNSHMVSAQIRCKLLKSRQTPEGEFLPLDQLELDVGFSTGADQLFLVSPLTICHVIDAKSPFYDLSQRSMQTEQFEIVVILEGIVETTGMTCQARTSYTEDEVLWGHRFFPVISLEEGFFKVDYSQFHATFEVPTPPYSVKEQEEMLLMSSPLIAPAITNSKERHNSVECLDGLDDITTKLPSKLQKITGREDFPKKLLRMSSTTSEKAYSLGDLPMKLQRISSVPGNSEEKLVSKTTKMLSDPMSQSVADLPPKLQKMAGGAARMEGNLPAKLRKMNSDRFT
T1 sequence (Q92806 whole entry): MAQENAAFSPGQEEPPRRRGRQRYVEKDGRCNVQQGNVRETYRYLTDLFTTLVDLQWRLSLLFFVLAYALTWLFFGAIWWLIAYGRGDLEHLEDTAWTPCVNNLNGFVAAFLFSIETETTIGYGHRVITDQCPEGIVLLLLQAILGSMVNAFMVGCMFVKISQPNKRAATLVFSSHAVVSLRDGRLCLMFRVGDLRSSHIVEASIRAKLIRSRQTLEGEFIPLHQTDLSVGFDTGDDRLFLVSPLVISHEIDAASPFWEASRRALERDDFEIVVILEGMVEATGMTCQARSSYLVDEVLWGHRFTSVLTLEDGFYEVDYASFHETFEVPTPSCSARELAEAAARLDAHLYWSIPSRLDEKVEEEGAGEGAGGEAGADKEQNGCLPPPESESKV
From the text: Cell Line Construction and Cell Culture. HEK-293 cells co-expressing human GIRK1/2 and rat mGlu8 were generated as previously described (Niswender et al., 2008). A HEK-293 cell line (ATCC, Manassas, Va.) expressing human GIRK1 and human GIRK2 was constructed by transfecting HEK-293 cells with GIRK1 and GIRK2 (Origene, Rockville, Md.) cloned into the pBudCE4.1 vector (Life Technologies, Carlsbad, Calif.) using FuGene 6 (Promega, Madison, Wis.) transfection reagent. Unless otherwise noted, other ion channel-expressing cells were prepared by transfecting HEK-293 cells with individual or combinations of subunits: GIRK1, pCMV6-A-BSD; GIRK2, pCMV6-A-puro; GIRK3, pCMV6-A-hygro; GIRK4, pCMV6-A-AC; Kv7.4, pIRESneo3. The Kir2.1 and hERG-expressing cell lines were made by transfecting T-REx-293 cells (Life Technologies, Carlsbad, Calif.) with Kir2.1 and Kv11.1, respectively, cloned into pcDNA5TO. Monoclonal cell lines were produced by limiting-dilution cloning of antibiotic-resistant cells and functional selection using the thallium flux assay described below. Unless otherwise noted, cells were maintained in Minimal Essential Medium, Alpha Medium (Mediatech, Manassas, Va.) supplemented with 10% fetal bovine serum (Sigma-Aldrich, Saint Louis, Mo.) and GlutaGro (Mediatech, Manassas, Va.), referred to henceforth as cell culture medium. […]

[1] = tested on: L-Type Ca channel (benzothiazepine); test: Radioligand displacement (Ricerca); type: binding, rat; conditions: 10 μM
[2] = Home cage locomotor activity (SmartCage); type: in vivo, mouse; conditions: mice, 60 mg/kg i.p., 24 hours after injection
Protocol: The SmartCageTM system ([…], Inc., Burlingame, Calif.) was used to assess compound effects on spontaneous homecage activity. Automated data analysis was performed using CageScoreTM software ([…], Inc.). The home cage activity was determined by beam breaks (x, y, and z photo-beam break counts). Distance traveled in centimeters was obtained from the lower horizontal sensors (x and y) taking into account the path taken. Average velocity was distance traveled/second in the forward direction, averaged over the block time (bin). Mice (male C57/BL6, 8-10 months old, approximately 30 g) mice were assessed continuously for 72 hours. The first 24 hours was used as a habituation period. The locomotion data obtained from the second 24 hours served as the baseline data for each mouse. […] After receiving their respective treatments, each mouse's locomotor activity was monitored over the 24 hours to assess recovery from drug effects.

For Cc1cc(NC(=O)Nc2ccc(F)c(F)c2)n(-c2ccccc2)n1 [VU0456810, 1-(3,4-difluorophenyl)-3-(3-methyl-1-phenyl-1H-pyrazol-5-yl)urea], the EC50 (GIRK1/3) was 914 ± 264 nM, the “EC50 Thallium Flux” value (GIRK1/3) was “able to activate” and the “% Inhibition” value [1] was 1%. For the same molecule, the “locomotor activity in home cage vs vehicle” value [2] was “overall decrease in locomotor activity; also recorded: decreased”.
